Measured values: patent publication US11180529B2, “Alpha-v beta-6 integrin ligands and uses thereof” (Arrowhead Pharmaceuticals, Inc., priority 2016, dated 2021)
Non-standard residues stand in square brackets, D forms with d. No end group written: not given here. Cit = NC(=O)NCCC[C@H](N)C(=O)O; R(Me)2 = dimethyl-arginine; Abu = CC[C@H](N)C(=O)O; Aib = CC(C)(N)C(=O)O

Tests used:
[1] = tested on: SKOV3 (human ovarian carcinoma) cells, very low αvβ6 cell surface expression; assay: αvβ6 ligand binding, flow cytometry of Cy5-labeled ligand-polymer conjugates, SKOV3 negative-control cells; format: cell-based; conditions: Cy5-polymer conjugate 5 μg/ml, 37° C., 3 h; specific MFI ratio = sample MFI/no-ligand MFI
Description: (§1) Each αvβ6 ligand was attached to a reversibly modified 1170-100B polymer cargo molecule. The 1170-100B polymer cargo molecule (a 56:44 ethoxyethylamine acrylate:propyl acrylate copolymer having a MW of about 45000) was labeled with Cy5 (NHS linker) and combined with aldehyde-PEG24-ACit at a weight ratio of 2:1 (polymer:aldehyde-PEG24-ACit) in 50 mM HEPES pH 9.0 buffer for 1 h at RT to form (aldehyde-PEG24-ACit)n-1170-100B wherein n is an integer greater than 0. Typically, n was about 10.
(§2) The aldehyde-PEG24-ACit-modified polymer was then reacted with PEG12-ACit at a weight ratio of 1:8 (polymer:PEG12-ACit) in 50 mM HEPES, pH 9.0 buffer for 1 h at RT to form (aldehyde-PEG24-ACit)n-1170-100B-(CitA-PEG12)m, wherein m is an integer greater than 0.
(§3) The modified polymer was then purified using a sephadex G-50 spin column and concentration determined:
(§4) Each αvβ6 ligand was modified with HyNic to facilitate conjugation to the cargo molecule. Purified polymer was combined with αvβ6 ligand-(PEG)8-K-HyNic at a weight ratio of 1:1.9 (polymer: αvβ6 ligand) in 50 mM NaOAC-HOAc, pH 5.0 buffer at RT overnight to form the αvβ6 ligand-polymer conjugate. The αvβ6 ligand-polymer conjugate was purified using a sephadex G-50 spin column.
Conjugation efficiency was quantified by measuring Absorbance of the αvβ6-polymer conjugate at 354 nm using an extinction coefficient of […] M^−1 cm^−1 for bis-aryl hydrazone bond. […]
To assess for specificity of binding of the αvβ6 ligands to the αvβ6 integrin, each αvβ6 ligand or negative control peptide was conjugated to a Cy5-labeled polymer (as described above) and evaluated for binding to cells. […] Samples were analyzed on a BD Biosciences Canto II cytometer equipped with a violet (405 nm), blue (488 nm) and red (633 nm) lasers. […] These viable cells were then assessed for conjugate binding/uptake with the red laser as the Mean Fluorescence Intensity (MFI) of the Cy5 fluorophore. […] A specific MFI Ratio (sMFIr) for each αvβ6 ligand was determined by the formula: specific sample MFI value/no-ligand MFI value.

[2] = tested on: H2009 (human lung epithelial adenocarcinoma) cells, αvβ6 integrin expressing; assay: αvβ6 ligand binding, flow cytometry of Cy5-labeled ligand-polymer conjugates, H2009 αvβ6 positive cells; format: cell-based; conditions: Cy5-polymer conjugate 5 μg/ml, 37° C., 3 h, specific MFI ratio = sample MFI/no-ligand MFI
Description: as §1, §2, §3, §4
Conjugation efficiency was quantified by measuring Absorbance of the αvβ6-polymer conjugate at 354 nm using an extinction coefficient of […] M^−1 cm^−1 for bis-aryl hydrazone bond.
αvβ6-polymer conjugates were diluted with isotonic glucose solution to desired concentrations for further analysis.
To assess for specificity of binding of the αvβ6 ligands to the αvβ6 integrin, each αvβ6 ligand or negative control peptide was conjugated to a Cy5-labeled polymer (as described above) and evaluated for binding to cells. […] H2009 (human lung epithelial adenocarcinoma) and CAPAN-2 (human pancreas adenocarcinoma) cells served as the αvβ6 positive-control cell lines. Cells were detached from culturing flasks with Accutase, washed in PBS, and seeded into 5 ml polystyrene round-bottom tubes at 200,000 cells in 200 μl complete media (culturing media with supplements and fetal calf serum). αvβ6 ligand-polymer conjugates or no-ligand-polymer conjugates were added at 5 μg/ml (polymer-Cy5 concentration) to cells, mixed and incubated at 37° C. for 3 h. Incubation at 37° C. facilitated ligand/receptor interaction which may result in static binding to the extracellular cell surface and/or internalized ligand/receptor complexes. The mixture was re-suspended at 1 h intervals. Following a 3 h incubation, cells were washed 2× with 4 ml chilled buffer (PBS-2% FCS) and re-suspended in 200 μl buffer containing 10 μM SYTOX blue stain for live/dead cell gating. Samples were analyzed on a BD Biosciences Canto II cytometer equipped with a violet (405 nm), blue (488 nm) and red (633 nm) lasers. Viable cells were initially gated as the SYTOX blue negative population on the C detector with the violet laser. These viable cells were then assessed for conjugate binding/uptake with the red laser as the Mean Fluorescence Intensity (MFI) of the Cy5 fluorophore. Data analyses were performed with FlowJo v10.1 software. A specific MFI Ratio (sMFIr) for each αvβ6 ligand was determined by the formula: specific sample MFI value/no-ligand MFI value.

Ac-R(Me)2GDLATLRQL (Ac-[R(Me)2]GDLATLRQL) [negative control peptide]
MFI SKOV3 [1]: 0.9 | MFI H2009 [2]: 1 | MFI H2009 ([2]; listed as AcR(Me)2GDLATLRQL): did not show significant binding

des-amino-RGDLATLRQL ({des‑amino}-RGDLATLRQL; not fully specified (residue 1); printed as des-amino-RGDLATLRQL)
MFI SKOV3 [1]: 0.8 | MFI H2009 [2]: 1.1

Dap(guanidino)-GDLATLRQL ({Dap(guanidino)}-GDLATLRQL)
MFI SKOV3 [1]: 1.4 | MFI H2009 [2]: 3.4

meta-guanidino-benzoic-GDLATLRQL ({meta‑guanidino‑benzoic}-GDLATLRQL)
MFI H2009 [2]: 4.5

CH3(CH2)3-RGDLAAbuLCitAib ({CH3(CH2)3}-RGDLA[Abu]L[Cit][Aib])
MFI H2009 [2]: 4.7

CH3(CH2)2-RGDLAAbuLCitAib ({CH3(CH2)2}-RGDLA[Abu]L[Cit][Aib])
MFI H2009 [2]: 3.9

CH3CH2-RGDLAAbuLCitAib (CH3CH2-RGDLA[Abu]L[Cit][Aib])
MFI H2009 [2]: 4.4

CH3(CH2)4-RGDLAAbuLCitAib ({CH3(CH2)4}-RGDLA[Abu]L[Cit][Aib])
MFI H2009 [2]: 4.1
